Measured values published in patent publication US11370801B2, “Pyrrolobenzodiazepine conjugates” (priority 2017, dated 2022).

What was measured:
NCI-N87 = assay: Therapeutic index: MTD in rat / MED in mouse efficacy model; format: in vivo; settings: ADC of the drug linker
Method: The therapeutic index of each ADC/drug linker was calculated using the following equation: TI=MTD in rat (mg/kg)/MED in mouse efficacy model (mg/kg)

[1] = in vitro cytotoxicity, picomolar region; cited from earlier work

| SMILES | NCI-N87 MED (NCI-N87) [mg/kg] | cytotoxic potency relative to DSB-120 [1] [fold] |
| --- | --- | --- |
| COc1cc2c(cc1OCc1cccc(COc3cc4c(cc3OC)C(=O)N3CCC[C@H]3[C@H](O)N4C(=O)OCc3ccc(NC(=O)[C@H](C)NC(=O)[C@@H](NC(=O)CCOCCOCCOCCOCCOCCOCCOCCOCCNC(=O)CCN4C(=O)C=CC4=O)C(C)C)cc3)c1)N=C[C@@H]1CCCN1C2=O [Compound 3, 4-((2S,5S)-37-(2,5-dioxo-2,5-dihydro-1H-pyrrol-1-yl)-5-isopropyl-2-methyl-4,7,35-trioxo-10,13,16,19,22,25,28,31-octaoxa-3,6,34-triazaheptatriacontanamido)benzyl (11S,11aS)-11-hydroxy-7-methoxy-8-((3-((((S)-7-methoxy-5-oxo-2,3,5,11a-tetrahydro-1H-benzo[e]pyrrolo[1,2-a][1,4]diazepin-8-yl)oxy)methyl)benzyl)oxy)-5-oxo-2,3,11,11a-tetrahydro-1H-benzo[e]pyrrolo[1,2-a][1,4]diazepine-10(5H)-carboxylate] | 1 |  |
| COc1cc2c(cc1OCCCOc1cc3c(cc1OC)C(=O)N1CCC[C@H]1[C@H](O)N3C(=O)OCc1ccc(NC(=O)[C@H](C)NC(=O)[C@@H](NC(=O)CCOCCOCCOCCOCCOCCOCCOCCOCCNC(=O)CCN3C(=O)C=CC3=O)C(C)C)cc1)N=C[C@@H]1CCCN1C2=O [Compound 2, 4-((2S,5S)-37-(2,5-dioxo-2,5-dihydro-1H-pyrrol-1-yl)-5-isopropyl-2-methyl-4,7,35-trioxo-10,13,16,19,22,25,28,31-octaoxa-3,6,34-triazaheptatriacontanamido)benzyl(11S,11aS)-11-hydroxy-7-methoxy-8-(3-(((S)-7-methoxy-5-oxo-2,3,5,11a-tetrahydro-1H-pyrrolo[2,1-c][1,4]benzodiazepin-8-yl)oxy)propoxy)-5-oxo-2,3,11,11a-tetrahydro-1H-pyrrolo[2,1-c][1,4]benzodiazepine-10(5H)-carboxylate] | 2 |  |
| C=C1C[C@H]2C=Nc3cc(OCCCOc4cc5c(cc4OC)C(=O)N4CC(=C)C[C@H]4C=N5)c(OC)cc3C(=O)N2C1 [SG2000] |  | ~9000 |
| COc1cc2c(cc1OCCCOc1cc3c(cc1OC)C(=O)N1CCC[C@H]1[C@H](O)N3C(=O)OCc1ccc(NC(=O)[C@H](C)NC(=O)[C@@H](NC(=O)CCOCCOCCOCCOCCOCCOCCOCCOCCNC(=O)CCN3C(=O)C=CC3=O)C(C)C)cc1)N=C[C@@H]1CCCN1C2=O [Compound 1, 4-((2S,5S)-37-(2,5-dioxo-2,5-dihydro-1H-pyrrol-1-yl)-5-isopropyl-2-methyl-4,7,35-trioxo-10,13,16,19,22,25,28,31-octaoxa-3,6,34-triazaheptatriacontanamido)benzyl(11S,11aS)-11-hydroxy-7-methoxy-8-(3-(((S)-7-methoxy-5-oxo-2,3,5,11a-tetrahydro-1H-pyrrolo[2,1-c][1,4]benzodiazepin-8-yl)oxy)propoxy)-5-oxo-2,3,11,11a-tetrahydro-1H-pyrrolo[2,1-c][1,4]benzodiazepine-10(5H)-carboxylate] | 6 |  |
